Laboratory results published in patent US20180243325A1, “METHOD FOR INHIBITING ABSORPTION OF AND/OR PROMOTING EXCRETION OF LIPIDS USING D-PSICOSE” (CJ CHEILJEDANG CORPORATION, priority 2015, published 2018).

What was measured:
Type in all cases: in vivo, C57BL/6J mice
[1] = test system: high-fat diet-induced obese mice; test: Plasma lipid profiles of high-fat diet-induced obese mice; settings: HFD+5% w/w in diet, 16 weeks
Protocol: (§1) First, 4-week-old male C57BL/6J mice (60 total) were purchased from Jackson Laboratory. The animals were acclimated to the vivarium in a thermo-hygrostat (20-23° C., 45-65%) under a 12 h light/dark cycle and fed a pelletized commercial non-purified diet for 1 week after arrival. The mice were then randomly divided into 6 groups (n=10) and fed the respective experimental diets for 16 weeks: normal diet group (ND, American Institute of Nutrition (AIN)-76 semi-synthetic diet), high-fat diet group (HFD, 20% fat+1% cholesterol based on AIN-76 diet), PSI group (HFD+5% D-psicose, w/w, Sigma Chemical Company), ERY group (HFD+5% erythritol, w/w, Sigma Chemical Company), GLU group (HFD+5% D-glucose, w/w, Sigma Chemical Company), and FRU group (HFD+5% D-fructose, w/w, Sigma Chemical Company). All high-fat diet-fed groups were allowed to ingest the same calories by pair feeding based on the PSI group. The mice had ad libitum access to distilled water during the experimental period. Their feed intakes and body weights were measured daily and biweekly, respectively. The organ weights and the adipose tissue weights of the mice were measured after sacrificing the animals. Plasma free fatty acid, phospholipid, apolipoprotein A-I (Apo A-I), and apolipoprotein B (ApoB B) levels were measured using Nittobo enzymatic kits (Nittobo medical Co., Tokyo, Japan). Plasma HDL-cholesterol, triglyceride (TG), and total cholesterol (total-C) levels were measured using Asan enzymatic kits (Asan, Seoul, South Korea).

[2] = test system: CD36 (cluster of differentiation 36, 12491); test: Small intestine mRNA expression, real-time quantitative PCR: CD36; settings: FIG. 8, HFD+5% w/w in diet, 16 weeks
Protocol: as §1, with “animals.” for “animals. Plasma free fatty acid, phospholipid, apolipoprotein A-I (Apo A-I), and apolipoprotein B (ApoB B) levels were measured using Nittobo enzymatic kits (Nittobo medical Co., Tokyo, Japan). Plasma HDL-cholesterol, triglyceride (TG), and total cholesterol (total-C) levels were measured using Asan enzymatic kits (Asan, Seoul, South Korea).”
(§2) Samples were prepared and analyzed as previously described. Specifically, total RNA was synthesized into cDNA using a QuantiTect Reverse Transcription kit (QIAGEN Gmb1h, Hilden, Germany). RNA expression was quantified with real-time quantitative PCR using a QuantiTect SYBR Green PCR kit (QIAGEN Gmb1h, Hilden, Germany). Primers were designed to detect CD36 (cluster of differentiation 36, 12491), ApoB48 (apolipoprotein B 48, 238055), FATP4 (fatty acid transporter 4, 26569), ABCG5 (ATP-binding cassette sub-family G member5, 27409), and ABCG8 (ATP-binding cassette sub-family G member8, 67470). GAPDH was used as an internal transcription marker. The reaction was performed a total of 40 cycles (each consisting of 15 sec at 94° C., 30 sec at 58° C., 30 sec at 72° C., and 15 sec at 65° C.). Fluorescence signals were monitored every cycle and the resulting threshold cycles (Ct) were analyzed. mRNA expression in each experimental group was quantified using a CFX96 Real time system (Bio-rad, USA).

[3] = test system: ApoB48 (apolipoprotein B 48, 238055); test: Small intestine mRNA expression, real-time quantitative PCR: ApoB48; settings: FIG. 8, HFD+5% w/w in diet, 16 weeks
Protocol: as §1, with “animals.” for “animals. Plasma free fatty acid, phospholipid, apolipoprotein A-I (Apo A-I), and apolipoprotein B (ApoB B) levels were measured using Nittobo enzymatic kits (Nittobo medical Co., Tokyo, Japan). Plasma HDL-cholesterol, triglyceride (TG), and total cholesterol (total-C) levels were measured using Asan enzymatic kits (Asan, Seoul, South Korea).”
as §2

[4] = test system: Fatty acid β-oxidation; test: Fatty acid β-oxidation activity in adipose tissue; settings: FIG. 5A, epididymal white adipose tissue, HFD+5% w/w in diet, 16 weeks
Protocol: First, 4-week-old male C57BL/6J mice (60 total) were purchased from Jackson Laboratory. The animals were acclimated to the vivarium in a thermo-hygrostat (20-23° C., 45-65%) under a 12 h light/dark cycle and fed a pelletized commercial non-purified diet for 1 week after arrival. The mice were then randomly divided into 6 groups (n=10) and fed the respective experimental diets for 16 weeks: normal diet group (ND, American Institute of Nutrition (AIN)-76 semi-synthetic diet), high-fat diet group (HFD, 20% fat+1% cholesterol based on AIN-76 diet), PSI group (HFD+5% D-psicose, w/w, Sigma Chemical Company), ERY group (HFD+5% erythritol, w/w, Sigma Chemical Company), GLU group (HFD+5% D-glucose, w/w, Sigma Chemical Company), and FRU group (HFD+5% D-fructose, w/w, Sigma Chemical Company). All high-fat diet-fed groups were allowed to ingest the same calories by pair feeding based on the PSI group. The mice had ad libitum access to distilled water during the experimental period. Their feed intakes and body weights were measured daily and biweekly, respectively. The organ weights and the adipose tissue weights of the mice were measured after sacrificing the animals. Samples were prepared and analyzed according to the method developed by Hulcher and Oleson. Specifically, the activity of fatty acid synthase (FAS) as a lipid regulating enzyme of epididymal white adipose tissue was measured by spectrophotometric assay according to the method described by Nepokroeff et al. Each sample was mixed with 100 μl of cytoplasmic fraction and the mixture was allowed to react at 30° C. for 2 min. A reduction in absorbance at 340 nm was measured. FAS activity units were expressed as nanomoles (nmol) of NADPH oxidized for 1 min per mg of cytoplasmic fraction. Fatty acid β-oxidation activity was measured by monitoring the reduction of NAD^+ to NADH in the presence of palmitoyl-CoA, as described by Lazarow. β-oxidation activity units were expressed as nanomoles (nmol) of NADH produced for 1 min per mg of mitochondrial protein.

[5] = test system: high-fat diet-induced obese mice; test: Adipose tissue morphologies (epididymal WAT, H&E); settings: FIG. 5B, 200×, HFD+5% w/w in diet, 16 weeks
Protocol: as §1, with “animals.” for “animals. Plasma free fatty acid, phospholipid, apolipoprotein A-I (Apo A-I), and apolipoprotein B (ApoB B) levels were measured using Nittobo enzymatic kits (Nittobo medical Co., Tokyo, Japan). Plasma HDL-cholesterol, triglyceride (TG), and total cholesterol (total-C) levels were measured using Asan enzymatic kits (Asan, Seoul, South Korea).”
Epididymal WATs were removed from the mice in the normal diet group (ND) and high-fat diet groups (HFD, ERY, GLU, FRU, and PSI) and fixed in a buffer solution of 10% formalin. The fixed epididymal WATs were embedded in paraffin. […] sections were prepared from the epididymal WATs and their cross-sections were dyed with hematoxylin and eosin. Stained areas were observed using an optical microscope at a magnification of 200× (Nikon, Tokyo, Japan).

SMILES | AI, atherogenic index, [(Total C) − HDL-C)]/HDL-C [1] | APO-A I/APO-B [1] | ApoA-I [1] [mg/dL] | ApoB [1] [mg/dL] | FFA (plasma free fatty acid) [1] [mmol/L] | HDL-C [1] [mmol/L] | HTR, (HDL-C/Total-C) × 100 [1] | PL (plasma phospholipid) [1] [mg/dL] | TG (plasma triglyceride) [1] [mmol/L] | Total-C (plasma total cholesterol) [1] [mmol/L] | nonHDL-C [1] [mmol/L] | mRNA expression level of CD36 in the small intestine [2] | mRNA expression level of ApoB48 in the small intestine [3] | fatty acid β-oxidation activity in adipose tissue [4] | size of adipocytes in the epididymal WATs [5] | mRNA expression level of CD36 in the small intestine ([2]; listed as D-psicose) | mRNA expression level of ApoB48 in the small intestine ([3]; listed as D-psicose)
OC[C@@H](O)[C@@H](O)CO [ERY, erythritol] | 3.55 | 3.16 | 27.28 | 8.61 | 0.53 | 1.22 | 23.95 | 135.46 | 1.25 | 5.35 | 4.36 | significantly higher | significantly higher | decreased significantly compared to those in the ND group | increase in the size of adipocytes |  | 
O=C(CO)[C@@H](O)[C@H](O)[C@H](O)CO [FRU, D-fructose] | 4.55 | 2.77 | 27.69 | 9.96 | 0.48 | 0.83 | 20.62 | 115.27 | 1.17 | 4.14 | 3.32 | significantly higher | significantly higher | decreased significantly compared to those in the ND group | increase in the size of adipocytes |  | 
O=C[C@H](O)[C@@H](O)[C@H](O)[C@H](O)CO [GLU, D-glucose] | 3.76 | 2.92 | 27.23 | 9.32 | 0.49 | 0.82 | 20.19 | 104.86 | 1.28 | 4.07 | 3.25 | significantly higher | significantly higher | decreased significantly compared to those in the ND group | increase in the size of adipocytes |  | 
O=C(CO)[C@H](O)[C@H](O)[C@H](O)CO [PSI, D-psicose] |  | 3.80 |  |  |  |  | 42.98 | 107.23 |  |  |  | significantly lower in the PSI group than those in other high-fat diet groups | significantly lower in the PSI group than those in other high-fat diet groups | increased significantly compared to those in other high-fat diet groups | relatively small compared to that in the other high-fat diet groups | reduces mRNA expression | reduces mRNA expression
